Data: PubChem BioAssay (NCI)
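Assay format: 96-well plates, 48-hour exposure. The concentration for 50% growth inhibition is given as GI50. TGI marks complete inhibition of growth.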

Key:
Assay in all cases: inhibition of tumour cell growth, NCI panel, 48 h
[1] = system: EKVX NSCLC
[2] = system: HCT-15 colon
[3] = system: KM12 colon
[4] = system: M14 melanoma
[5] = system: NCI-H522 lung
[6] = system: OVCAR-4 ovarian
[7] = system: SF-295 CNS
[8] = system: SK-OV-3 ovarian
[9] = system: HS 578T breast
[10] = system: MCF7 breast

Row | Compound | TGI [1] | TGI [2] | TGI [3] | TGI [4] | TGI [5] | TGI [6] | TGI [7] | TGI [8] | GI50 [1] | GI50 [2] | GI50 [9] | TGI [9] | GI50 [3] | GI50 [4] | GI50 [10] | TGI [10] | GI50 [6] | GI50 [7] | GI50 [8] | GI50 [5]
1 | O=C(c1cc(O)ccc1O)c1ccccc1C(Cl)(Cl)Cl | > 100 µM | > 100 µM | > 100 µM | > 100 µM | > 100 µM | > 100 µM | > 100 µM | > 100 µM |  |  |  |  |  |  |  |  |  |  |  | 
2 | O=C(CC(=O)N1N=C(c2ccccc2)C(N=Nc2ccc(C(=O)O)cc2)C1=O)Nc1ccc(F)cc1 (stereo not drawn) | 77.1 µM | > 100 µM |  | > 100 µM | 33.3 µM | > 100 µM | > 100 µM | 62.6 µM |  |  |  |  |  |  |  |  |  |  |  | 
3 | C=C(CN1CCN(c2ccccc2OC)CC1)c1ccc(C(=O)Nc2ccccc2N)cc1 | > 50 µM | 31.3 µM | 11.6 µM | > 50 µM |  | 23.6 µM | 15.4 µM | 18.1 µM | 10.6 µM | 2.03 µM | 3.58 µM | > 50 µM | 3.32 µM | 12.1 µM | 16.7 µM | > 50 µM | 3.2 µM | 4.11 µM | 7.18 µM | 
4 | Cn1c2c([N+](=O)[O-])[se]nc2c(=O)n1-c1ccc([N+](=O)[O-])cc1 | 5.23 µM | 2.73 µM | 15.7 µM | 2.62 µM | 2.94 µM | 0.909 µM | 11.6 µM | 6.1 µM |  |  |  |  |  |  |  |  |  |  |  | 
5 | NCCCCCS(=O)(=O)O | > 100 µM | > 100 µM | > 100 µM | > 100 µM | > 100 µM | > 100 µM |  | > 100 µM |  |  |  |  |  |  |  |  |  |  |  | 
6 | CC#C[C@@]1(O)CCCC[C@@H]1O | > 100 µM | > 100 µM | > 100 µM | > 100 µM | > 100 µM | > 100 µM | > 100 µM | > 100 µM |  |  |  |  |  |  |  |  |  |  |  | 
7 | OCC(O)C(O)c1nn(-c2ccccc2)c2nc3cc(Cl)c(Cl)cc3nc12 (stereo not drawn) | > 100 µM | > 100 µM | 81.2 µM | > 100 µM | > 100 µM | 93.5 µM | > 100 µM | > 100 µM |  |  |  |  |  |  |  |  |  |  |  | 
8 | COC(=O)C1=C(OC)c2cc3c(cc2C(c2cc(OC)c(OC)c(OC)c2)C1C(=O)OC)OCO3 (stereo not drawn) | > 100 µM | > 100 µM | > 100 µM | > 100 µM |  | > 100 µM | > 100 µM | > 100 µM |  |  |  |  |  |  |  |  |  |  |  | 
9 | Cc1c[nH]c2c1C13CC1CN(C(=O)c1cc4cc(NC(=O)c5cc6ccccc6o5)ccc4[nH]1)C3=CC2=O (stereo not drawn) |  | < 0.001 µM | < 0.001 µM | < 0.001 µM | < 0.001 µM | < 0.001 µM | < 0.001 µM | 218 ng/mL |  | > 1.17 ng/mL |  |  |  |  | > 1.17 ng/mL | 11700 ng/mL | > 1.17 ng/mL | > 1.17 ng/mL | > 1.17 ng/mL | > 1.17 ng/mL
10 | c1ccc2c(CNCCCCCCNCc3cccc4ccccc34)cccc2c1 | 26.4 µM | 19.8 µM | 15.1 µM | 3.25 µM | 9.78 µM | 28.9 µM | 24.8 µM | 31.5 µM |  |  |  |  |  |  |  |  |  |  |  | 
11 | O=C1C2c3[nH]c4ccccc4c3[C@@H]3CCCCCCCCCCC3C2C(=O)N1c1ccccc1 (stereo partly drawn) | > 100 µM | > 100 µM | 42 µM | 34.3 µM |  | 57.5 µM | 42.1 µM | 23 µM |  |  |  |  |  |  |  |  |  |  |  | 
12 | CC1=NNC(=NCCN(C)C)C/C1=C/c1ccccc1Cl | > 100 µM | > 100 µM | > 100 µM | > 100 µM |  | > 100 µM | > 100 µM | > 100 µM |  |  |  |  |  |  |  |  |  |  |  | 
13 | O=C(O)c1c(O)c2cc(Br)ccc2oc1=O | > 100 µM | > 100 µM |  | > 100 µM | > 100 µM | > 100 µM | > 100 µM |  |  |  |  | > 100 µM |  |  |  | > 100 µM |  |  |  | 
14 | CCN(CC)CCN1C(=O)c2c(c(C)c3c(oc4cc(O)ccc43)c2C)C1=O | 3.3 µM | 3.32 µM | 3.74 µM | 3.63 µM | 4.71 µM | 3.37 µM | 2.98 µM | 3.36 µM | 1.69 µM | 1.69 µM |  |  | 1.82 µM | 1.81 µM | 1.65 µM | 3.32 µM | 1.69 µM | 1.56 µM | 1.83 µM | 2.11 µM
15 | CCOC(=O)c1sc(-c2ccc(OS(=O)(=O)c3cccs3)c(C=O)c2)nc1C | 5.4 µM | 2.13 µM | 3.24 µM | 3.86 µM | 3.43 µM |  | 3.36 µM | 7.79 µM | 1.88 µM | 0.561 µM | 2.1 µM | 5.3 µM | 1.47 µM | 1.9 µM | 1.88 µM | 4.51 µM |  | 1.72 µM | 3.25 µM | 1.51 µM
16 | Nc1nc2c(ncn2C2OC(CO)C(O)C2N)c(=O)[nH]1 (stereo not drawn) |  | > 100 µM | > 100 µM | > 100 µM | > 100 µM |  | > 100 µM | > 100 µM |  |  |  |  |  |  |  |  |  |  |  | 
17 | COc1ccc(SC2c3cc(OC)c(OC)cc3Oc3nc(N)c(C#N)c(N)c32)cc1 (stereo not drawn) | 3.34 µM | 2.23 µM | 3.05 µM | 2.65 µM | 2.77 µM | 2.73 µM | 2.96 µM | 3.2 µM | 1.74 µM | 0.973 µM |  |  | 1.53 µM | 1.21 µM | 0.454 µM | 2.1 µM | 1.33 µM | 1.6 µM | 1.81 µM | 1.37 µM
18 | COC(=O)c1c[nH]c(=O)[nH]c1=O | > 100 µM | > 100 µM | > 100 µM | > 100 µM | > 100 µM |  | > 100 µM |  |  |  |  | > 100 µM |  |  |  | > 100 µM |  |  |  | 
19 | N#Cc1cccc(NC(=O)c2ccc(C(=O)O)c(C(=O)c3ccc(C(=O)O)c(C(=O)Nc4cccc(C#N)c4)c3)c2)c1 | > 100 µM | > 100 µM | > 100 µM | > 100 µM | > 100 µM | > 100 µM | > 100 µM | > 100 µM |  |  |  |  |  |  |  |  |  |  |  | 
20 | Cc1cccc(NC(=O)C(=O)C2C(=O)NC(=O)NC2=O)c1C | > 100 µM | > 100 µM | > 100 µM | > 100 µM | > 100 µM | > 100 µM | > 100 µM | > 100 µM |  |  |  |  |  |  |  |  |  |  |  | 
21 | O=C(c1ccccc1)C1C(C(=O)c2ccccc2)N1Cc1ccccc1 (stereo not drawn) | > 100 µM | > 100 µM | > 100 µM | > 100 µM | 74.6 µM | > 100 µM | > 100 µM | > 100 µM |  |  |  | > 100 µM |  |  |  |  |  |  |  | 
